# Measured values reported in paper PMC5218480 (PLoS ONE, 2017).
# Test system: MV-4-11 cells
# Assay: Gene expression microarray analysis (Affymetrix PrimeView) and GSEA
# Assay type: cell-based, human
# Set-up: RFU PODN (11730768_x_at) / Fold change /veh PODN (11730768_x_at) / RFU LINC00158 (11744669_a_at) / Fold change /veh LINC00158 (11744669_a_at) / RFU DUSP10 (11751237_a_at) / Fold change /veh DUSP10 (11751237_a_at) / RFU ID3 (11757404_x_at) / Fold change /veh ID3 (11757404_x_at) / RFU PLEKHG5 (11737974_s_at) / Fold change /veh PLEKHG5 (11737974_s_at) / RFU LRRC4B (11730491_at) / Fold change /veh LRRC4B (11730491_at) / RFU GIMAP4 (11747438_a_at) / Fold change /veh GIMAP4 (11747438_a_at) / RFU KRT8 (11758183_x_at) / Fold change /veh KRT8 (11758183_x_at) / RFU CNN1 (11734310_a_at) / Fold change /veh CNN1 (11734310_a_at) / RFU VPS37D (11726825_at) / Fold change /veh VPS37D (11726825_at) / RFU C10orf10 (11716522_x_at) / Fold change /veh C10orf10 (11716522_x_at) / RFU KIR2DL2 /// KIR2DL4 /// KIR2DL5A /// KIR2DL5B /// KIR2DS1 /// KIR2DS2 /// KIR2DS3 /// KIR2DS4 /// KIR3DL3 /// KIR3DL3 /// KIR3DS1 (11738374_at) / Fold change /veh KIR2DL2 /// KIR2DL4 /// KIR2DL5A /// KIR2DL5B /// KIR2DS1 /// KIR2DS2 /// KIR2DS3 /// KIR2DS4 /// KIR3DL3 /// KIR3DL3 /// KIR3DS1 (11738374_at) / RFU C1QL1 (11718748_at) / Fold change /veh C1QL1 (11718748_at) / RFU TMPRSS4 (11747572_a_at) / Fold change /veh TMPRSS4 (11747572_a_at) / RFU HAMP (11756126_x_at) / Fold change /veh HAMP (11756126_x_at) / RFU RNFT2 (11725882_a_at) / Fold change /veh RNFT2 (11725882_a_at) / RFU NR4A2 (11747474_a_at) / Fold change /veh NR4A2 (11747474_a_at) / RFU ABCC12 (11746883_a_at) / Fold change /veh ABCC12 (11746883_a_at) / RFU TMEM136 (11760407_x_at) / Fold change /veh TMEM136 (11760407_x_at) / RFU CLDN22 /// WWC2 (11732394_at) / Fold change /veh CLDN22 /// WWC2 (11732394_at) / RFU HLA-DPB1 (11760878_x_at) / Fold change /veh HLA-DPB1 (11760878_x_at) / RFU SPINT1 (11716480_a_at) / Fold change /veh SPINT1 (11716480_a_at) / RFU GAP43 (11754022_s_at) / Fold change /veh GAP43 (11754022_s_at) / RFU A4GNT (11735810_at) / Fold change /veh A4GNT (11735810_at) / RFU PRB3 (11715151_x_at) / Fold change /veh PRB3 (11715151_x_at) / RFU TUBB4B (11761932_at) / Fold change /veh TUBB4B (11761932_at) / RFU CAPN14 (11732068_a_at) / Fold change /veh CAPN14 (11732068_a_at) / RFU TMCC2 (11721928_a_at) / Fold change /veh TMCC2 (11721928_a_at) / RFU IRGQ (11745062_a_at) / Fold change /veh IRGQ (11745062_a_at) / RFU FAM174B (11720279_a_at) / Fold change /veh FAM174B (11720279_a_at) / RFU TMPRSS4 (11748680_a_at) / Fold change /veh TMPRSS4 (11748680_a_at) / RFU FAM212B (11763350_a_at) / Fold change /veh FAM212B (11763350_a_at) / RFU PLEKHG5 (11743358_a_at) / Fold change /veh PLEKHG5 (11743358_a_at) / RFU ZSCAN30 (11745921_a_at) / Fold change /veh ZSCAN30 (11745921_a_at) / RFU CMKLR1 (11741424_a_at) / Fold change /veh CMKLR1 (11741424_a_at) / RFU LOC101060620 /// MAPK8IP1 (11723275_at) / Fold change /veh LOC101060620 /// MAPK8IP1 (11723275_at) / RFU SPTSSB (11747773_x_at) / Fold change /veh SPTSSB (11747773_x_at) / RFU PRSS12 (11739890_at) / Fold change /veh PRSS12 (11739890_at) / RFU BIN1 (11741810_x_at) / Fold change /veh BIN1 (11741810_x_at) / RFU WNT11 (11732464_a_at) / Fold change /veh WNT11 (11732464_a_at) / RFU C10orf10 (11716521_a_at) / Fold change /veh C10orf10 (11716521_a_at) / RFU C5orf56 (11738089_at) / Fold change /veh C5orf56 (11738089_at) / RFU CYB561 (11721691_x_at) / Fold change /veh CYB561 (11721691_x_at) / RFU ANKRD19P (11752326_a_at) / Fold change /veh ANKRD19P (11752326_a_at) / RFU OR2T12 /// OR2T33 /// OR2T8 (11738714_s_at) / Fold change /veh OR2T12 /// OR2T33 /// OR2T8 (11738714_s_at) / RFU VCAN (11748164_a_at) / Fold change /veh VCAN (11748164_a_at) / RFU JSRP1 (11732532_at) / Fold change /veh JSRP1 (11732532_at) / RFU KRTAP10-11 (11738290_x_at) / Fold change /veh KRTAP10-11 (11738290_x_at) / RFU MYO3A (11730013_a_at) / Fold change /veh MYO3A (11730013_a_at) / RFU EBF3 (11725865_a_at) / Fold change /veh EBF3 (11725865_a_at) / RFU CAMK2N1 (11719241_x_at) / Fold change /veh CAMK2N1 (11719241_x_at) / RFU C5orf56 (11738088_a_at) / Fold change /veh C5orf56 (11738088_a_at) / RFU OLFML3 (11715873_a_at) / Fold change /veh OLFML3 (11715873_a_at) / RFU LOC100653217 /// NTM (11731650_a_at) / Fold change /veh LOC100653217 /// NTM (11731650_a_at) / RFU MAPK11 (11762145_a_at) / Fold change /veh MAPK11 (11762145_a_at) / RFU FIZ1 (11724087_x_at) / Fold change /veh FIZ1 (11724087_x_at) / RFU OASL (11726364_x_at) / Fold change /veh OASL (11726364_x_at) / RFU SOX15 (11748057_x_at) / Fold change /veh SOX15 (11748057_x_at) / RFU CD79A (11719716_a_at) / Fold change /veh CD79A (11719716_a_at) / RFU HIST1H1D (11736915_at) / Fold change /veh HIST1H1D (11736915_at) / RFU CASKIN2 (11723855_a_at) / Fold change /veh CASKIN2 (11723855_a_at) / RFU LOC730098 (11760151_x_at) / Fold change /veh LOC730098 (11760151_x_at) / RFU OR4N2 (11742367_at) / Fold change /veh OR4N2 (11742367_at) / RFU PRRT2 (11749266_a_at) / Fold change /veh PRRT2 (11749266_a_at) / RFU SNX32 (11753110_a_at) / Fold change /veh SNX32 (11753110_a_at) / RFU CDHR5 (11726645_a_at) / Fold change /veh CDHR5 (11726645_a_at) / RFU RCAN1 (11760418_a_at) / Fold change /veh RCAN1 (11760418_a_at) / RFU FAM167A (11723789_a_at) / Fold change /veh FAM167A (11723789_a_at) / RFU FAM26E (11764081_at) / Fold change /veh FAM26E (11764081_at) / RFU ISYNA1 (11749810_s_at) / Fold change /veh ISYNA1 (11749810_s_at) / RFU ACY1 (11761880_at) / Fold change /veh ACY1 (11761880_at) / RFU 11764098_at / Fold change /veh 11764098_at / RFU SAMD14 (11745864_x_at) / Fold change /veh SAMD14 (11745864_x_at) / RFU NPB (11741838_a_at) / Fold change /veh NPB (11741838_a_at) / RFU TMPRSS6 (11731388_a_at) / Fold change /veh TMPRSS6 (11731388_a_at) / RFU KRTAP10-2 (11738614_at) / Fold change /veh KRTAP10-2 (11738614_at) / RFU ARHGAP8 /// PRR5-ARHGAP8 (11727945_x_at) / Fold change /veh ARHGAP8 /// PRR5-ARHGAP8 (11727945_x_at) / RFU KRTAP5-7 /// NADSYN1 (11734609_at) / Fold change /veh KRTAP5-7 /// NADSYN1 (11734609_at) / RFU RASL12 (11751679_a_at) / Fold change /veh RASL12 (11751679_a_at) / RFU CDKN2B (11736163_a_at) / Fold change /veh CDKN2B (11736163_a_at) / RFU PRF1 (11729649_at) / Fold change /veh PRF1 (11729649_at) / RFU, ZNF638 /// ZNF638-IT1 / Fold change vs veh, ZNF638 /// ZNF638-IT1 / RFU, PANK3 / Fold change vs veh, PANK3 / RFU, SH3YL1 / Fold change vs veh, SH3YL1 / RFU, ZEB2 / Fold change vs veh, ZEB2 / RFU, NRIP1 / Fold change vs veh, NRIP1 / RFU, PTTG1IP / Fold change vs veh, PTTG1IP / RFU, CAPN2 / Fold change vs veh, CAPN2 / RFU, MED14 / Fold change vs veh, MED14 / RFU, SNORA58 / Fold change vs veh, SNORA58 / RFU, C1orf63 / Fold change vs veh, C1orf63 / RFU, LRRFIP1 / Fold change vs veh, LRRFIP1 / RFU, NDUFAF7 / Fold change vs veh, NDUFAF7 / RFU, SLC12A2 / Fold change vs veh, SLC12A2 / RFU, IBTK / Fold change vs veh, IBTK / RFU, ESF1 / Fold change vs veh, ESF1 / Fold change vs veh, TMEM50B / RFU, TAOK1 / Fold change vs veh, TAOK1 / RFU, ACBD3 / Fold change vs veh, ACBD3 / RFU, TMA16 / Fold change vs veh, TMA16 / RFU, RWDD3 / Fold change vs veh, RWDD3 / RFU, BCAT1 / Fold change vs veh, BCAT1 / RFU, EDEM3 / Fold change vs veh, EDEM3 / RFU, TMEM33 / Fold change vs veh, TMEM33 / RFU, WDR75 / Fold change vs veh, WDR75 / RFU, AHCTF1 / Fold change vs veh, AHCTF1 / RFU, TFRC / Fold change vs veh, TFRC / RFU, ZDHHC17 / Fold change vs veh, ZDHHC17 / RFU, NOM1 / Fold change vs veh, NOM1 / RFU, ARL8B / Fold change vs veh, ARL8B / RFU, ZBTB11 / Fold change vs veh, ZBTB11 / RFU, TAMM41 / Fold change vs veh, TAMM41 / RFU, KIAA1704 /// LOC100996395 / Fold change vs veh, KIAA1704 /// LOC100996395 / RFU, ING1 / Fold change vs veh, ING1 / RFU, TRMT61B / Fold change vs veh, TRMT61B / RFU, FUBP3 / Fold change vs veh, FUBP3 / RFU, TP53 / Fold change vs veh, TP53 / RFU, TNKS2 / Fold change vs veh, TNKS2 / RFU, ZFP14 / Fold change vs veh, ZFP14 / RFU, ACTR2 / Fold change vs veh, ACTR2 / RFU, PPP3R1 / Fold change vs veh, PPP3R1 / RFU, PIK3R1 / Fold change vs veh, PIK3R1 / RFU, HNRNPA1 / Fold change vs veh, HNRNPA1 / RFU, RNF170 / Fold change vs veh, RNF170 / RFU, ZNF28 / Fold change vs veh, ZNF28 / RFU, RNGTT / Fold change vs veh, RNGTT / RFU, OGT / Fold change vs veh, OGT / RFU, BRD1 / Fold change vs veh, BRD1 / RFU, MARS / Fold change vs veh, MARS / RFU, ZNF655 / Fold change vs veh, ZNF655 / RFU, FAHD1 / Fold change vs veh, FAHD1 / RFU, BDP1 / Fold change vs veh, BDP1 / RFU, LRRCC1 / Fold change vs veh, LRRCC1 / RFU, ARID1A / Fold change vs veh, ARID1A / RFU, ZNF146 / Fold change vs veh, ZNF146 / RFU, ZNF330 / Fold change vs veh, ZNF330 / RFU, GPN3 / Fold change vs veh, GPN3 / RFU, C9orf123 / Fold change vs veh, C9orf123 / RFU, N4BP2L2 / Fold change vs veh, N4BP2L2 / RFU, ARFIP1 / Fold change vs veh, ARFIP1 / RFU, FAM179B / Fold change vs veh, FAM179B / RFU, BCL10 / Fold change vs veh, BCL10 / RFU, UHRF1BP1L / Fold change vs veh, UHRF1BP1L / RFU, BET1 / Fold change vs veh, BET1 / RFU, CNOT2 / Fold change vs veh, CNOT2 / RFU, ZNF268 / Fold change vs veh, ZNF268 / Fold change vs veh, ZNF507 / RFU, DGCR2 / Fold change vs veh, DGCR2 / RFU, WDSUB1 / Fold change vs veh, WDSUB1 / Fold change vs veh, HSP90B1 /// MIR3652 / RFU, ADSS / Fold change vs veh, ADSS / RFU, GK / Fold change vs veh, GK / RFU, ZNF148 / Fold change vs veh, ZNF148 / RFU, TAF9 / Fold change vs veh, TAF9 / RFU, SLC1A5 / Fold change vs veh, SLC1A5 / RFU, SLMO2 / Fold change vs veh, SLMO2 / RFU, ABCC4 / Fold change vs veh, ABCC4 / RFU, LOC101060439 /// RAP1B / Fold change vs veh, LOC101060439 /// RAP1B / RFU, RFX7 / Fold change vs veh, RFX7 / RFU, GTPBP10 / Fold change vs veh, GTPBP10 / RFU, CNEP1R1 / Fold change vs veh, CNEP1R1 / RFU, BIVM-ERCC5 /// ERCC5 / Fold change vs veh, BIVM-ERCC5 /// ERCC5 / RFU, ILF3 / Fold change vs veh, ILF3 / RFU 11762660_at / Fold change /veh 11762660_at / RFU VCAN (11757783_s_at) / Fold change /veh VCAN (11757783_s_at) / RFU DDX43 (11728927_at) / Fold change /veh DDX43 (11728927_at) / RFU KRT8 (11758188_x_at) / Fold change /veh KRT8 (11758188_x_at) / RFU NKD1 (11759106_at) / Fold change /veh NKD1 (11759106_at) / RFU SRD5A1 (11742802_a_at) / Fold change /veh SRD5A1 (11742802_a_at) / RFU TPSAB1 /// TPSB2 (11721975_s_at) / Fold change /veh TPSAB1 /// TPSB2 (11721975_s_at) / RFU GSTM3 (11746129_a_at) / Fold change /veh GSTM3 (11746129_a_at) / RFU IL23R (11737362_x_at) / Fold change /veh IL23R (11737362_x_at) / RFU TMEM51 (11727254_a_at) / Fold change /veh TMEM51 (11727254_a_at) / RFU PIWIL2 (11732686_x_at) / Fold change /veh PIWIL2 (11732686_x_at) / RFU ORM1 (11744905_x_at) / Fold change /veh ORM1 (11744905_x_at) / RFU CCDC152 (11743942_at) / Fold change /veh CCDC152 (11743942_at) / RFU ECM1 (11717891_a_at) / Fold change /veh ECM1 (11717891_a_at) / RFU IL23R (11748794_a_at) / Fold change /veh IL23R (11748794_a_at) / RFU TNFAIP8L3 (11732012_x_at) / Fold change /veh TNFAIP8L3 (11732012_x_at) / RFU MBOAT4 (11741988_at) / Fold change /veh MBOAT4 (11741988_at) / RFU 11764193_at / Fold change /veh 11764193_at / RFU TMEM53 (11763286_at) / Fold change /veh TMEM53 (11763286_at) / RFU MAGEB2 (11727129_at) / Fold change /veh MAGEB2 (11727129_at) / RFU TMEM200A (11744735_a_at) / Fold change /veh TMEM200A (11744735_a_at) / RFU CCDC152 (11751479_a_at) / Fold change /veh CCDC152 (11751479_a_at) / RFU FAM211A (11726209_a_at) / Fold change /veh FAM211A (11726209_a_at) / RFU RGS16 (11746705_a_at) / Fold change /veh RGS16 (11746705_a_at) / RFU VCAN (11755009_s_at) / Fold change /veh VCAN (11755009_s_at) / RFU RHOB (11743442_s_at) / Fold change /veh RHOB (11743442_s_at) / RFU RGS16 (11720943_a_at) / Fold change /veh RGS16 (11720943_a_at) / RFU RGS16 (11720944_at) / Fold change /veh RGS16 (11720944_at) / RFU, VPS4B / Fold change vs veh, VPS4B / RFU, CREB1 / Fold change vs veh, CREB1 / RFU, DNAJC13 / Fold change vs veh, DNAJC13 / RFU, GNAQ / Fold change vs veh, GNAQ / RFU, CDK5R1 / Fold change vs veh, CDK5R1 / RFU, ZRANB3 / Fold change vs veh, ZRANB3 / RFU, CUL4A / Fold change vs veh, CUL4A / RFU, CCNY / Fold change vs veh, CCNY / RFU, UFL1 / Fold change vs veh, UFL1 / RFU, COG3 / Fold change vs veh, COG3 / RFU, DIAPH2 / Fold change vs veh, DIAPH2 / RFU, SKA2 / Fold change vs veh, SKA2 / RFU, AFF3 / Fold change vs veh, AFF3 / RFU, LMF1 / Fold change vs veh, LMF1 / RFU, IPO11 / Fold change vs veh, IPO11 / RFU, DFFB / Fold change vs veh, DFFB / RFU, FOXP1 / Fold change vs veh, FOXP1 / RFU, CARD8 / Fold change vs veh, CARD8 / RFU, STRN3 / Fold change vs veh, STRN3 / RFU, ADK / Fold change vs veh, ADK / RFU, RASSF2 / Fold change vs veh, RASSF2 / RFU, WIPF1 / Fold change vs veh, WIPF1 / RFU, LARP1B / Fold change vs veh, LARP1B / RFU, RASA1 / Fold change vs veh, RASA1 / RFU, RB1 / Fold change vs veh, RB1 / RFU, PPFIA1 / Fold change vs veh, PPFIA1 / RFU, MAT2A / Fold change vs veh, MAT2A / RFU, CCT5 / Fold change vs veh, CCT5 / RFU, WDR92 / Fold change vs veh, WDR92 / RFU, CUX1 / Fold change vs veh, CUX1 / RFU, TTC7A / Fold change vs veh, TTC7A / RFU, TMEM135 / Fold change vs veh, TMEM135 / RFU, DEPTOR / Fold change vs veh, DEPTOR / RFU, CPM / Fold change vs veh, CPM / RFU, DNAJB6 / Fold change vs veh, DNAJB6 / RFU, CACNA2D3 / Fold change vs veh, CACNA2D3 / RFU, DTX4 / Fold change vs veh, DTX4 / RFU, TFCP2 / Fold change vs veh, TFCP2 / RFU, GMCL1 /// GMCL1P1 / Fold change vs veh, GMCL1 /// GMCL1P1 / RFU, AEBP2 / Fold change vs veh, AEBP2 / RFU, SNHG1 /// SNORD22 /// SNORD25 /// SNORD26 /// SNORD27 /// SNORD28 /// SNORD29 /// SNORD31 / Fold change vs veh, SNHG1 /// SNORD22 /// SNORD25 /// SNORD26 /// SNORD27 /// SNORD28 /// SNORD29 /// SNORD31 / Fold change (Aza/veh), C12orf56 (ProbeSet 11735607_a_at) / Fold change (ACY-1035/veh), C12orf56 (ProbeSet 11735607_a_at) / Fold change (Aza/veh), FGFR1OP (ProbeSet 11751329_s_at) / Fold change (ACY-1035/veh), FGFR1OP (ProbeSet 11751329_s_at) / Fold change (Aza/veh), VPS36 (ProbeSet 11739960_a_at) / Fold change (ACY-1035/veh), VPS36 (ProbeSet 11739960_a_at) / RFU SYPL1 (11715823_x_at) / Fold change /veh SYPL1 (11715823_x_at) / RFU IGFBP7 (11715501_s_at) / Fold change /veh IGFBP7 (11715501_s_at) / RFU REEP3 (11722064_at) / Fold change /veh REEP3 (11722064_at) / RFU IGLL1 (11728026_x_at) / Fold change /veh IGLL1 (11728026_x_at): dose or concentration left out as unconfirmed
# Details: MV-4-11 cells, 48 hours
compound,measurement,value
Nc1ncn([C@@H]2O[C@H](CO)[C@@H](O)[C@H]2O)c(=O)n1 [azacitidine],Fold change /veh PRF1 (11729649_at),1.08
